Square brackets hold non-standard residues; d marks the D form. Peptide text beside a SMILES is read from it. NMeF = CN[C@@H](Cc1ccccc1)C(=O)O
Tested on: acute pain caused by photothermal therapy in male mice of Kunming strain
Experiment: Mouse photothermal tail flick analgesia experiment
Type: in vivo
Method: After the drug was injected into the lateral ventricle, intrathecal, subcutaneous, and intraperitoneal, the modulating activity on pain was measured by the photothermal tail flick test in mouse.
In the lateral ventricle administration, the lateral ventricle tube-buried surgery of the mouse should be performed in advance to ensure the accuracy of the drug injection site. A brain stereotaxic instrument was used in the lateral ventricle tube-buried surgery of the mouse. Male mice of Kunming strain, weighing 21±2 g; brain stereotaxic instrument is Jiangwan I. After the mice were anesthetized with sodium pentobarbital (i.p., 80 mg/kg mouse body weight), the hair in the head surgery area of the mouse was cut off and the mouse was placed on the brain stereotactic instrument and fixed. The surgery area was disinfected with iodophor, the scalp was opened along the sagittal suture to reveal the skull and the position of the anterior fontanelle can be found. 3 mm backward and 1 mm left/right from the anterior fontanelle, the upper position of the lateral ventricle can be found. A self-made stainless steel tube (a section of 24-gauge, which is connected to a small section of PE-10 tube) is inserted 3 mm downward according to the above position, which is the lateral ventricle. A section of stainless steel string (28-gauge) is inserted into the above-mentioned steel tube to prevent cerebrospinal fluid spillage and foreign matter infection and block the steel pipe. The steel tube is fixed with medical dental powder and glue, and after solidification, the wound is sutured. After the surgery, the mice were recovered tier 4 days, and the follow-up experiment was started on the 5th day. Surgical instruments, stainless steel tubes, etc. involved in the experiment need to be disinfected before the surgery. The mouse lateral ventricle was injected with 4 μl of the drug each time, and then the steel tube was rinsed with 1 μl of physiological saline.
Spinal cord level administration is performed by intrathecal injection in conscious mice, and the specific procedure is described in the method reported by Hylden and Wilcox (Eur. J. Pharmacol. 1980, 67: 313). A 25 μL microinjector was inserted directly into the subarachnoid space between L5 and L6.
The intraperitoneal administration was directly injected using a 1 mL syringe at an injection volume of 10 μl/g body weight. At the time of injection, the mouse was held by left hand with their abdomen facing up and the head was at low position while the tail was at high position. The side of the midline of the abdomen was taken, the needle hole of the syringe was upward, the needle tip penetrates into the skin in a direction less than 20 degrees, the needle tip was slightly pushed in the direction of the mouse head and sticking abdominal wall, and then punctures into the abdominal cavity in the direction of 45 degrees, and was withdrawn to confirm that it has not been pierced into the blood vessel or the intestine, afterwards the drug solution is slowly pushed out.
Subcutaneous injection was also administered directly using a 1 mL syringe in an injection volume of 10 μl/g body weight. At the time of injection, the neck and tail of the mouse were fixed in the left hand, and the head and body were inclined downward at 45 degrees. The needle hole of the syringe is upward, the needle tip is slowly pierced into the skin on the right side of the back center line at an angle of less than 20 degrees, and the needle tip is lightly picked up to confirm that there is no piercing, afterwards the drug solution is slowly pushed out.
Male mice of Kunming strain were used to detect the effects of drugs on pain perception using a photothermal tail flick instrument. The ambient temperature is controlled at 22±1° C., and the experimental animals are free to eat and drink. The basic tail flick incubation period (3-5 seconds) was determined prior to administration, and mice that were too sensitive or dull were discarded. […]

C[C@@H](NC(=O)[C@@H](N)Cc1ccc(O)cc1)C(=O)NCC(=O)N(C)[C@@H](Cc1ccccc1)C(=O)NCC(=O)N1CCC[C@H]1C(=O)N[C@@H](CCC(N)=O)C(=O)N[C@@H](CCCNC(=N)N)C(=O)N[C@@H](Cc1ccccc1)C(N)=O [Compound 9, Tyr-D-Ala-Gly-NMe-Phe-Gly-Pro-Gln-Arg-Phe-NH2] (H-Y[dA]G[NMeF]GPQRF-NH2)
analgesia ED50 value (abdominal (intraperitoneal)): 26.58 mg/kg
analgesic potency relative to BN-9 (intrathecal): 218 times
analgesic ED50 value (intrathecal administration): 1.33 pmol
maximum analgesic MPE value (intrathecal, 5 pmol): 94.7%
analgesic ED50 value (lateral ventricle administration): 16.3 pmol
ED50 value (nmol) (95% confidence interval), analgesic activity (lateral ventricle injection): 0.0163 (0.0145 to 0.0182) nmol
analgesic potency relative to BN-9 (lateral ventricle, from ED50 values): 23.9 times
analgesia ED50 value (subcutaneous): 0.2279 mg/kg

From patent US11167006B2 (Shanghai Tianci Life Science Development Co., Ltd., priority 2016, dated 2021)
